# Several values for one entry are separate records, joined by “and”; a condition that tells them apart may be missing. Equal values may be shown once. Inconclusive results and toxic doses are left out.
# System: P388 leukemia ip, CD2F1 mice, survival T/C
# Experiment: NCI In Vivo Anticancer Drug Screen. Data for tumor model P388 Leukemia (intraperitoneal) in CD2F1 (CDF1) mice
# Details: endpoint: median survival time, higher = longer survival
# In short: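 Mice carrying the transplanted tumor received test compound or vehicle. Survival was recorded in each group, and the value is the treated-group measurement divided by that of the vehicle-treated control group.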
# [1] = dose: 100.0 mg/kg/injection, schedule: Q04DX003 (ip), vehicle: Klucel (hydroxypropylcellulose) (HPC)
# [2] = dose: 200.0 mg/kg/injection, schedule: Q04DX003 (ip), vehicle: Klucel (hydroxypropylcellulose) (HPC)
# [3] = dose: 400.0 mg/kg/injection, schedule: Q04DX003 (ip), vehicle: Klucel (hydroxypropylcellulose) (HPC)
# [4] = dose: 50.0 mg/kg/injection, schedule: Q01DX005 (ip), vehicle: saline with Tween-80
# [5] = dose: 100.0 mg/kg/injection, schedule: Q01DX005 (ip), vehicle: saline with Tween-80
compound,measurement,setting,value
NC(=O)c1nnn(-c2ccccc2)n1,T/C,[1],105 % of control
same,T/C,[2],99 % of control
same,T/C,[3],89 % of control
O=c1[nH]cnc2[nH]cc([N+](=O)[O-])c12,T/C,"dose: 6.25 mg/kg/injection, schedule: Q01DX009 (ip), vehicle: saline",102 % of control
same,T/C,"dose: 12.5 mg/kg/injection, schedule: Q01DX009 (ip), vehicle: saline",107 % of control
same,T/C,"dose: 25.0 mg/kg/injection, schedule: Q01DX009 (ip), vehicle: saline",102 % of control
same,T/C,"dose: 50.0 mg/kg/injection, schedule: Q01DX009 (ip), vehicle: saline",103 % of control
CCN(CC)Cc1c(C)[nH]c2ccc3c(c2c1=O)CCCC3,T/C,"dose: 60.0 mg/kg/injection, schedule: Q01DX005 (ip), vehicle: Klucel (hydroxypropylcellulose) (HPC)",91 % of control
same,T/C,"dose: 120.0 mg/kg/injection, schedule: Q01DX005 (ip), vehicle: Klucel (hydroxypropylcellulose) (HPC)",93 % of control
CC1C(=O)SCC1(O)c1ccccc1 (configuration not stated),T/C,"dose: 100.0 mg/kg/injection, schedule: Q04DX002 (ip), vehicle: Klucel (hydroxypropylcellulose) (HPC)",102 % of control
same,T/C,"dose: 200.0 mg/kg/injection, schedule: Q04DX002 (ip), vehicle: Klucel (hydroxypropylcellulose) (HPC)",103 % of control
same,T/C,"dose: 400.0 mg/kg/injection, schedule: Q04DX002 (ip), vehicle: Klucel (hydroxypropylcellulose) (HPC)",107 % of control
COc1cc2cc3c(-c4ccccc4)noc3nc2cc1OC,T/C,"dose: 60.0 mg/kg/injection, schedule: Q01DX005 (ip), vehicle: saline with Tween-80",106 % of control
same,T/C,"dose: 120.0 mg/kg/injection, schedule: Q01DX005 (ip), vehicle: saline with Tween-80",93 % of control
same,T/C,"dose: 240.0 mg/kg/injection, schedule: Q01DX005 (ip), vehicle: saline with Tween-80",90 % of control
CN(C)c1ccc(Cc2ccc(N(C)C)nc2)cn1,T/C,[4],109 % of control
same,T/C,[5],110 % of control
COc1cc(N)ccc1Nc1c2ccccc2nc2ccccc12,T/C,"dose: 12.5 mg/kg/injection, schedule: Q04DX002 (ip), vehicle: distilled water + Tween-80",117 % of control
same,T/C,"dose: 50.0 mg/kg/injection, schedule: Q04DX002 (ip), vehicle: distilled water + Tween-80",165 % of control
same,T/C,"dose: 100.0 mg/kg/injection, schedule: Q04DX002 (ip), vehicle: distilled water + Tween-80",166 % of control and 185 % of control
same,T/C,"dose: 200.0 mg/kg/injection, schedule: Q04DX002 (ip), vehicle: distilled water + Tween-80",194 % of control
O=[N+]([O-])c1ccc(Nc2ccc(Cl)cc2)c2nonc12,T/C,[4],100 % of control
same,T/C,[5],103 % of control
same,T/C,"dose: 200.0 mg/kg/injection, schedule: Q01DX005 (ip), vehicle: saline with Tween-80",97 % of control
CCCCCCCCCCN(CCCCCCCCCC)CC(=O)c1ccc2cc(Br)c3ccccc3c2c1,T/C,"dose: 25.0 mg/kg/injection, schedule: Q01DX005 (ip), vehicle: Klucel (hydroxypropylcellulose) (HPC)",96 % of control
same,T/C,"dose: 50.0 mg/kg/injection, schedule: Q01DX005 (ip), vehicle: Klucel (hydroxypropylcellulose) (HPC)",89 % of control
same,T/C,"dose: 100.0 mg/kg/injection, schedule: Q01DX005 (ip), vehicle: Klucel (hydroxypropylcellulose) (HPC)",98 % of control
O=C(c1cccc(C(=O)N2CCCC2)n1)N1CCCC1,T/C,"dose: 60.0 mg/kg/injection, schedule: Q01DX005 (ip), vehicle: saline",102 % of control
same,T/C,"dose: 120.0 mg/kg/injection, schedule: Q01DX005 (ip), vehicle: saline",102 % of control
same,T/C,"dose: 240.0 mg/kg/injection, schedule: Q01DX005 (ip), vehicle: saline",109 % of control
C1CCC2CC2C2(CC1)CO2 (configuration not stated),T/C,[1],106 % of control
same,T/C,[2],108 % of control
same,T/C,[3],115 % of control
CC(O)C(NC(=O)c1cnc(OCc2ccccc2)nc1N)C(=O)O (configuration not stated),T/C,"dose: 6.25 mg/kg/injection, schedule: Q01DX009 (ip), vehicle: saline with Tween-80",100 % of control
same,T/C,"dose: 12.5 mg/kg/injection, schedule: Q01DX009 (ip), vehicle: saline with Tween-80",100 % of control
same,T/C,"dose: 25.0 mg/kg/injection, schedule: Q01DX009 (ip), vehicle: saline with Tween-80",90 % of control
O=c1oc(-c2cccc(F)c2)ns1,T/C,"dose: 100.0 mg/kg/injection, schedule: Q01DX009 (ip), vehicle: Klucel (hydroxypropylcellulose) (HPC)",115 % of control
same,T/C,"dose: 200.0 mg/kg/injection, schedule: Q01DX009 (ip), vehicle: Klucel (hydroxypropylcellulose) (HPC)",116 % of control
same,T/C,"dose: 400.0 mg/kg/injection, schedule: Q01DX009 (ip), vehicle: Klucel (hydroxypropylcellulose) (HPC)",115 % of control
O=C1NC(=O)c2ccc3c4c(ccc1c24)C(=O)NC3=O,T/C,"dose: 15.5 mg/kg/injection, schedule: Q01DX009 (ip), vehicle: saline with Tween-80",95 % of control
same,T/C,"dose: 31.0 mg/kg/injection, schedule: Q01DX009 (ip), vehicle: saline with Tween-80",95 % of control
same,T/C,"dose: 62.0 mg/kg/injection, schedule: Q01DX009 (ip), vehicle: saline with Tween-80",91 % of control
